Source: patent US9352015B2, “Antimicrobial peptides” (priority 2009, dated 2016)
In brackets after ≈: the same amount, converted by molar mass. Several values for one entry are separate records, joined by “and”; a condition that tells them apart may be missing. Equal entries are not always repeated. Where two headings read alike, the source gives them in different places.

What was measured:
[1] = Hemolytic activity against human erythrocytes (HC50 / MHC, microtiter dilution); assay type: cell-based; settings: human, 1% human erythrocytes, pH 7.4
Method: Hemoglobin release was determined spectrophotometrically at 570 nm. The hemolytic activity was determined as the peptide concentration that caused 50% hemolysis of erythrocytes after 18 h (HC50). […] HC50 was determined by a plot of peptide concentration versus percent lysis.

Acinetobacter baumannii = assay type: cell-based
How it was run: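 Microtiter broth dilution in triplicate, mainly LB no-salt medium (MH or BHI in some cases), peptides serially diluted, final inoculum 5×10^5 CFU/ml (1×10^5 CFU/ml in MH variant); 24 h at 37° C. MIC is the lowest peptide concentration inhibiting growth, given in micromolar against clinical isolates.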

[2] = tested on: Methicillin Resistant Staphylococcus aureus (MRSA) and Staphylococcus aureus; assay type: cell-based
How it was run: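 MICs by microtiter broth dilution in triplicate determinations, mostly LB no-salt medium (sometimes MH or BHI), final inoculum 5×10^5 CFU/ml (1×10^5 CFU/ml in the MH variant), 24 h at 37 °C. MIC is the lowest peptide concentration inhibiting growth; tested on 20 clinical MRSA and S. aureus isolates.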

[3] = RP-HPLC retention as measure of overall peptide hydrophobicity; assay type: physicochemical; settings: pH 2, room temperature
Method: Crude and purified peptides were analyzed on an Agilent 1100 series liquid chromatograph (Little Falls, Del.). Runs were performed on a Zorbax 300 SB-C8 column (150×2.1 mm I.D.; 5 μm particle size, 300 Å pore size) from Agilent Technologies using linear AB gradient (1% acetonitrile/min) and a flow rate of 0.25 ml/min, where eluant A was 0.2% aqueous TFA, pH 2 and eluant B was 0.2% TFA in acetonitrile.

[4] = RP-HPLC temperature profiling (peptide self-association parameter PA); assay type: physicochemical; settings: RP-HPLC temperature profiling 5-80° C., pH 2, relative to control peptide C
Method: Temperature profiling analyses were performed on the same column in 3° C. increments, from 5° C. to 80° C., using a linear AB gradient of 0.5% acetonitrile/min, as described previously (30, 53, 92, 93).
Peptide self-association (i.e., the ability to oligomerize/dimerize) in aqueous solution is a very important parameter for antimicrobial activity (53, 92, 93). Without wishing to be bound by any particular theory, the present inventors postulated that monomeric random-coil antimicrobial peptides are best suited to pass through the capsule and cell wall of microorganisms prior to penetration into the cytoplasmic membrane, induction of α-helical structure and disruption of membrane structure to kill target cells (93). Thus, if the self-association ability of a peptide in aqueous media is too strong (e.g., forming stable folded dimers through interaction of their non-polar faces) this could decrease the ability of the peptide to dissociate to monomer, in addition oligomerization of the peptide can prevent it from effectively passing through the capsule and cell wall to reach the membrane. The ability of the peptides in the present study to self-associate was determined by the technique of RP-HPLC temperature profiling at pH 2 (29, 30, 38). The reason pH 2 is used to determine self-association of cationic AMPs is that highly positively charged peptides are frequently not eluted from reversed-phase columns at pH 7 due to non-specific binding to negatively charged silanols on the column matrix. This is not a problem at pH 2 since the silanols are protonated (i.e., neutral) and non-specific electrostatic interactions are eliminated. At pH 2, the interactions between the peptide and the reversed-phase matrix involve ideal retention behavior, i.e., only hydrophobic interactions between the preferred binding domain (nonpolar face) of the amphipathic molecule and the hydrophobic surface of the column matrix are present (39). […] Control peptide C is a monomeric random coil peptide in both aqueous and hydrophobic media; thus, its linear decrease in peptide retention behavior with increasing temperature within the range of 5° C. to 80° C. represents only the general effects of temperature due to greater solute diffusivity and enhanced mass transfer between the stationary and mobile phase at higher temperatures (55). To allow for these general temperature effects, the data for the control peptide was subtracted from each temperature profile as shown in FIG. 2B. Thus, the peptide self-association parameter, PA, represents the maximum change in peptide retention time relative to the random coil peptide C. Note that the higher the PA value, the greater the self-association.

Pseudomonas aeruginosa = settings: for MIC PAO 1: 37° C., 24 h, strain PAO1; for MIC GM (geometric mean of the MIC values): six P. aeruginosa strains; for MIC CP 204: strain CP204; for MIC M 2: strain M2; for MIC PA 14: strain PA14; for MIC PAK: strain PAK; for MIC WR 5: strain WR5

| Compound | HC50 at 18 h [1] | MIC GM (geometric mean) (Acinetobacter baumannii) | MIC GM (geometric mean) [2] | Hydrophobicity (retention time in RP-HPLC) [3] | PA (dimerization / self-association parameter) [4] | MIC PAO 1 (Pseudomonas aeruginosa; Brain Heart Infusion medium) | MIC GM (geometric mean of the MIC values) (Pseudomonas aeruginosa; Brain Heart Infusion medium) | MIC CP 204 (Pseudomonas aeruginosa; Brain Heart Infusion medium) | MIC M 2 (Pseudomonas aeruginosa; Brain Heart Infusion medium) | MIC PA 14 (Pseudomonas aeruginosa; Brain Heart Infusion medium) | MIC PAK (Pseudomonas aeruginosa; Brain Heart Infusion medium) | MIC WR 5 (Pseudomonas aeruginosa; Brain Heart Infusion medium) | MIC PAO 1 (Pseudomonas aeruginosa; Mueller Hinton medium) | MIC GM (geometric mean of the MIC values) (Pseudomonas aeruginosa; Mueller Hinton medium) | MIC CP 204 (Pseudomonas aeruginosa; Mueller Hinton medium) | MIC M 2 (Pseudomonas aeruginosa; Mueller Hinton medium) | MIC PA 14 (Pseudomonas aeruginosa; Mueller Hinton medium) | MIC PAK (Pseudomonas aeruginosa; Mueller Hinton medium) | MIC WR 5 (Pseudomonas aeruginosa; Mueller Hinton medium) | also measured |
| --- | --- | --- | --- | --- | --- | --- | --- | --- | --- | --- | --- | --- | --- | --- | --- | --- | --- | --- | --- | --- |
| CC[C@@H](C)[C@@H](NC(=O)[C@@H](C)NC(=O)[C@@H](CCCCN)NC(=O)[C@@H](CC(C)C)NC(=O)[C@@H](CC(C)C)NC(=O)[C@H](NC(=O)[C@@H](CCCCN)NC(=O)[C@@H](CC(C)C)NC(=O)[C@@H](C)NC(=O)[C@@H](CCCCN)NC(=O)[C@@H](CCCCN)NC(=O)[C@@H](CCCCN)NC(=O)[C@@H](C)NC(=O)[C@@H](CCCCN)NC(=O)[C@@H](CO)NC(=O)[C@@H](Cc1ccccc1)NC(=O)[C@H](NC(=O)[C@@H](CCCCN)NC(=O)[C@@H](CC(C)C)NC(=O)[C@@H](Cc1ccccc1)NC(=O)[C@@H](CO)NC(=O)[C@@H](CO)NC(=O)[C@@H](Cc1c[nH]c2ccccc12)NC(=O)[C@@H](CO)NC(C)=O)[C@H](C)O)[C@H](C)O)C(=O)N[C@H](CO)C(=O)N[C@H](CO)C(N)=O [Peptide D19, Ac-SWSSFLKTFSKAKKKALKTLLKAISS-amide] | 36 µg/mL and 12.2 µM | 0.8 µM (≈ 2.35 µg/mL) | 5.3 µM (≈ 15.6 µg/mL) | 97.94 min | 7.07 | 7.8 µg/mL (≈ 2.65 µM) | 9.8 µg/mL | 15.6 µg/mL (≈ 5.31 µM) | 7.8 µg/mL (≈ 2.65 µM) | 3.9 µg/mL (≈ 1.33 µM) | 15.6 µg/mL (≈ 5.31 µM) | 15.6 µg/mL (≈ 5.31 µM) | 3.9 µg/mL (≈ 1.33 µM) | 7.8 µg/mL | 15.6 µg/mL (≈ 5.31 µM) | 15.6 µg/mL (≈ 5.31 µM) | 3.9 µg/mL (≈ 1.33 µM) | 3.9 µg/mL (≈ 1.33 µM) | 15.6 µg/mL (≈ 5.31 µM) |  |
| CC[C@@H](C)[C@@H](NC(=O)[C@@H](C)NC(=O)[C@@H](CCCCN)NC(=O)[C@@H](CC(C)C)NC(=O)[C@@H](CC(C)C)NC(=O)[C@H](NC(=O)[C@@H](CCCCN)NC(=O)[C@@H](CC(C)C)NC(=O)[C@@H](C)NC(=O)[C@@H](CCCCN)NC(=O)[C@@H](CCCCN)NC(=O)[C@@H](CCCCN)NC(=O)[C@@H](C)NC(=O)[C@@H](CCCCN)NC(=O)[C@@H](CO)NC(=O)[C@@H](Cc1ccccc1)NC(=O)[C@H](NC(=O)[C@@H](CCCCN)NC(=O)[C@@H](CC(C)C)NC(=O)[C@@H](Cc1ccccc1)NC(=O)[C@@H](CO)NC(=O)[C@@H](CCCCN)NC(=O)[C@@H](Cc1c[nH]c2ccccc12)NC(=O)[C@@H](CO)NC(C)=O)[C@H](C)O)[C@H](C)O)C(=O)N[C@H](CO)C(=O)N[C@H](CO)C(N)=O [Peptide D20, Ac-SWKSFLKTFSKAKKKALKTLLKAISS-amide] | 77 µg/mL and 25.8 µM | 0.6 µM (≈ 1.79 µg/mL) | 6.0 µM (≈ 17.9 µg/mL) | 95.90 min | 6.39 | 7.8 µg/mL (≈ 2.62 µM) | 9.8 µg/mL | 15.6 µg/mL (≈ 5.23 µM) | 7.8 µg/mL (≈ 2.62 µM) | 7.8 µg/mL (≈ 2.62 µM) | 15.6 µg/mL (≈ 5.23 µM) | 7.8 µg/mL (≈ 2.62 µM) | 7.8 µg/mL (≈ 2.62 µM) | 12.4 µg/mL | 31.3 µg/mL (≈ 10.5 µM) | 15.6 µg/mL (≈ 5.23 µM) | 7.8 µg/mL (≈ 2.62 µM) | 7.8 µg/mL (≈ 2.62 µM) | 15.6 µg/mL (≈ 5.23 µM) |  |
| CC[C@@H](C)[C@@H](NC(=O)[C@@H](C)NC(=O)[C@@H](CCCCN)NC(=O)[C@@H](CC(C)C)NC(=O)[C@@H](CC(C)C)NC(=O)[C@H](NC(=O)[C@@H](CCCCN)NC(=O)[C@@H](CC(C)C)NC(=O)[C@@H](C)NC(=O)[C@@H](CCCCN)NC(=O)[C@@H](CCCCN)NC(=O)[C@@H](CCCCN)NC(=O)[C@@H](C)NC(=O)[C@@H](CCCCN)NC(=O)[C@@H](CO)NC(=O)[C@@H](Cc1ccccc1)NC(=O)[C@H](NC(=O)[C@@H](CCCCN)NC(=O)[C@@H](CC(C)C)NC(=O)[C@@H](Cc1ccccc1)NC(=O)[C@@H](CO)NC(=O)[C@@H](CCCCN)NC(=O)[C@@H](Cc1c[nH]c2ccccc12)NC(=O)[C@@H](CCCCN)NC(C)=O)[C@H](C)O)[C@H](C)O)C(=O)N[C@H](CO)C(=O)N[C@H](CCCCN)C(N)=O [Peptide D22, Ac-KWKSFLKTFSKAKKKALKTLLKAISK-amide] | 249 µg/mL and 81.3 µM | 0.8 µM (≈ 2.45 µg/mL) | 12.1 µM (≈ 37.1 µg/mL) | 90.7 min and 90.67 min | 5.13 | 15.6 µg/mL (≈ 5.09 µM) | 9.8 µg/mL | 31.3 µg/mL (≈ 10.2 µM) | 3.9 µg/mL (≈ 1.27 µM) | 3.9 µg/mL (≈ 1.27 µM) | 7.8 µg/mL (≈ 2.55 µM) | 15.6 µg/mL (≈ 5.09 µM) | 3.9 µg/mL (≈ 1.27 µM) | 7.0 µg/mL | 31.3 µg/mL (≈ 10.2 µM) | 15.6 µg/mL (≈ 5.09 µM) | 0.5 µg/mL (≈ 0.163 µM) | 3.9 µg/mL (≈ 1.27 µM) | 31.3 µg/mL (≈ 10.2 µM) | Acinetobacter baumannii MICGM (Acinetobacter baumannii; geometric mean, 11 different isolates, 24 hours at 37° C.): 0.8 µM; Pseudomonas aeruginosa MICGM (Pseudomonas aeruginosa; geometric mean, 6 different isolates, 24 hours at 37° C.): 2.3 µM |
